Data taken from patent publication US20200031784A1, “OZANIMOD ADDITION SALT CRYSTAL, PREPARATION METHOD, PHARMACEUTICAL COMPOSITION, AND USES” (Solipharma LLC, priority 2017, published 2020).
Structures can show the parent of a compound that is named as a salt. Where two headings read alike, the source gives them in different places.

Columns and labels:
Type in all cases: physicochemical
[1] = Phase stability in aqueous system, slurry for 5 days (Comparative Example 2); conditions: slurry 5 days
Protocol: The phase stability of crystalline forms of ozanimod salts of Examples 1 to 124 and ozanimod hydrochloride crystalline form of Preparation Example 2 were tested in aqueous system.

[2] = Isothermal adsorption curve (dynamic vapor sorption), weight change; conditions: in the range of 0% to 50%
Protocol: Dynamic vapor sorption data and isothermal sorption data are collected on TA Instruments Q5000 TGA. A sample of 1 to 10 mg is usually placed in a platinum pan; and the TA software records the change in weight of the sample during relative humidity from 0% to 80% to 0%. Depending on the specifics of the sample, different adsorption and desorption steps are also applied to the sample.

[3] = Water solubility of crystalline ozanimod salt forms (Comparative Example 1)
Protocol: The water solubility of crystalline forms of ozanimod salts of Examples 1 to 124 and ozanimod hydrochloride of Preparation Example 2 were tested.

Row | Slurry for 5 days in ethanol/water (1:1) (solid state after slurry) [1] | Slurry for 5 days in water (solid state after slurry) [1] | weight change according to the isothermal adsorption curve [2] [%] | 25° C. water solubility ([3]; 25° C.) [µg/mL] | 37° C. water solubility ([3]; 37° C.) [µg/mL] | solubility ([3]; 25° C., read-out: 25° C. water solubility) [µg/mL] | solubility ([3]; 37° C., read-out: 37° C. water solubility) [µg/mL] | Structure (SMILES)
1 | Crystalline | Crystalline | – | – | – | – | – | CC(C)Oc1ccc(-c2nc(-c3cccc4c3CC[C@@H]4NCCO)no2)cc1C#N.O=C(O)C(O)C(O)C(=O)O [Ozanimod L-tartrate Form 1]
2 | Crystalline | Crystalline | – | – | – | – | – | CC(C)Oc1ccc(-c2nc(-c3cccc4c3CCC4NCCO)no2)cc1C#N.O=C(O)CC(O)(CC(=O)O)C(=O)O (stereo not drawn) [Ozanimod citrate Form 1]
3 | Crystalline | Crystalline | – | 2340 | 4550 | – | – | CC(C)Oc1ccc(-c2nc(-c3cccc4c3CC[C@@H]4NCCO)no2)cc1C#N.O=C(O)/C=C/C(=O)O [Ozanimod fumarate Form 1]
4 | Crystalline | Crystalline | – | 10550 | 22620 | – | – | CC(C)Oc1ccc(-c2nc(-c3cccc4c3CC[C@@H]4NCCO)no2)cc1C#N.CC(C)Oc1ccc(-c2nc(-c3cccc4c3CC[C@@H]4NCCO)no2)cc1C#N.O=C(O)C[C@H](O)C(=O)O [Ozanimod hemi-L-malate Form 1]
5 | Crystalline | Crystalline | – | – | – | – | – | CC(C)Oc1ccc(-c2nc(-c3cccc4c3CCC4NCCO)no2)cc1C#N.O=S(=O)(O)O (stereo not drawn) [Ozanimod hydrosulfate Form 1]
6 | Crystalline | Crystalline | – | 1200 | 5290 | – | – | CC(C)Oc1ccc(-c2nc(-c3cccc4c3CC[C@@H]4NCCO)no2)cc1C#N.O=C(O)/C=C\C(=O)O [Ozanimod maleate Form 1]

The next lines start with the molecule.

Row | Structure (SMILES) | Slurry for 5 days in ethanol/water (1:1) (solid state after slurry) [1] | Slurry for 5 days in water (solid state after slurry) [1] | weight change according to the isothermal adsorption curve [2] [%] | 25° C. water solubility ([3]; 25° C.) [µg/mL] | 37° C. water solubility ([3]; 37° C.) [µg/mL] | solubility ([3]; 25° C., read-out: 25° C. water solubility) [µg/mL] | solubility ([3]; 37° C., read-out: 37° C. water solubility) [µg/mL]
7 | CC(C)Oc1ccc(-c2nc(-c3cccc4c3CC[C@@H]4NCCO)no2)cc1C#N.O=S(=O)(O)c1ccccc1 [Ozanimod besylate Form 1] | Crystalline | Crystalline | 0.05 | – | – | – | –
8 | CC(C)Oc1ccc(-c2nc(-c3cccc4c3CC[C@@H]4NCCO)no2)cc1C#N.O=P(O)(O)O [Ozanimod dihydrogen phosphate Form 1] | Crystalline | Crystalline | – | 2540 | 7710 | – | –
9 | CC(C)Oc1ccc(-c2nc(-c3cccc4c3CCC4NCCO)no2)cc1C#N.CC(C)Oc1ccc(-c2nc(-c3cccc4c3CCC4NCCO)no2)cc1C#N.O=C(O)C=CC(=O)O (stereo not drawn) [Ozanimod hemi-fumarate Form 1] | Crystalline | Crystalline | – | – | – | – | –
10 | CC(C)Oc1ccc(-c2nc(-c3cccc4c3CCC4NCCO)no2)cc1C#N.CC(C)Oc1ccc(-c2nc(-c3cccc4c3CCC4NCCO)no2)cc1C#N.O=S(=O)(O)O (stereo not drawn) [Ozanimod hemisulfate Form 1] | Crystalline | Crystalline | – | – | – | – | –
11 | Br.CC(C)Oc1ccc(-c2nc(-c3cccc4c3CC[C@@H]4NCCO)no2)cc1C#N [Ozanimod hydrobromide Form 1] | Crystalline | Crystalline | – | 780 | 3490 | – | –
12 | CC(C)Oc1ccc(-c2nc(-c3cccc4c3CC[C@@H]4NCCO)no2)cc1C#N [Ozanimod hydrochloride form, reference compound] | Weak crystallinity | Amorphous | 0.14 | – | – | 610 | 2450
13 | CC(C)Oc1ccc(-c2nc(-c3cccc4c3CC[C@@H]4NCCO)no2)cc1C#N.CS(=O)(=O)O [Ozanimod mesylate Form 1] | Crystalline | Crystalline | – | 17600 | 53820 | – | –
